# Results taken from ChEMBL document CHEMBL1201862, “PubChem BioAssay data set” (2004).
# The source made the active and inactive calls.
# Experiments:
# [1] = target: Cytochrome P450 2D6 (Homo sapiens, UniProt P10635);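 also: CYP2D6 member of a cytochrome P450 panel assay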
# [2] = target: T1, Cytochrome P450 1A2 (Homo sapiens, UniProt P05177);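 also: PubChem cytochrome P450 panel assay, CYP1A2 panel member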
# T1 sequence (P05177 whole entry): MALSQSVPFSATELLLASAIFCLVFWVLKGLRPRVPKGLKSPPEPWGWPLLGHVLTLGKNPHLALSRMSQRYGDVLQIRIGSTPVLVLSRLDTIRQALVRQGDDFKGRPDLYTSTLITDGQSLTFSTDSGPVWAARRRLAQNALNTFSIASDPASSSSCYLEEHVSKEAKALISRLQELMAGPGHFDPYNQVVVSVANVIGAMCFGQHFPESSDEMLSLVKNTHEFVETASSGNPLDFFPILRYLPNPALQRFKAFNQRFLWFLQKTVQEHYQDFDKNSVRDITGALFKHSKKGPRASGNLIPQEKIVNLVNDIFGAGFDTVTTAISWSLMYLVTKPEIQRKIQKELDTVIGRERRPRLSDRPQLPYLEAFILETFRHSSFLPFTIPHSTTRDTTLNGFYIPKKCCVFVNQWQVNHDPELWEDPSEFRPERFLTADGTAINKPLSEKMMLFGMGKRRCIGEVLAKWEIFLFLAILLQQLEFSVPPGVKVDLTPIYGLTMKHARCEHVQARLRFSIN
# [3] = target: Cytochrome P450 2C19 (Homo sapiens, UniProt P33261); assay: Cytochrome panel assay with activity outcomes. Panel member name: p450-cyp2c19 Compounds with AC50 equal or less than 10 uM are considered active; type: functional
# [4] = target: Cytochrome P450 3A4 (Homo sapiens, UniProt P08684);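 also: CYP3A4 tested as one member of a cytochrome P450 panel screen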
# [5] = target: Cytochrome P450 2C9 (Homo sapiens, UniProt P11712)
# [6] = target: T2, Replicative DNA helicase DnaB (Mycobacterium tuberculosis, UniProt P9WMR3); assay: DnaB intein splicing inhibitors, dose response, biochemical, cell-free fluorescence (AID 449749); type: functional
# T2 sequence (P9WMR3 whole entry): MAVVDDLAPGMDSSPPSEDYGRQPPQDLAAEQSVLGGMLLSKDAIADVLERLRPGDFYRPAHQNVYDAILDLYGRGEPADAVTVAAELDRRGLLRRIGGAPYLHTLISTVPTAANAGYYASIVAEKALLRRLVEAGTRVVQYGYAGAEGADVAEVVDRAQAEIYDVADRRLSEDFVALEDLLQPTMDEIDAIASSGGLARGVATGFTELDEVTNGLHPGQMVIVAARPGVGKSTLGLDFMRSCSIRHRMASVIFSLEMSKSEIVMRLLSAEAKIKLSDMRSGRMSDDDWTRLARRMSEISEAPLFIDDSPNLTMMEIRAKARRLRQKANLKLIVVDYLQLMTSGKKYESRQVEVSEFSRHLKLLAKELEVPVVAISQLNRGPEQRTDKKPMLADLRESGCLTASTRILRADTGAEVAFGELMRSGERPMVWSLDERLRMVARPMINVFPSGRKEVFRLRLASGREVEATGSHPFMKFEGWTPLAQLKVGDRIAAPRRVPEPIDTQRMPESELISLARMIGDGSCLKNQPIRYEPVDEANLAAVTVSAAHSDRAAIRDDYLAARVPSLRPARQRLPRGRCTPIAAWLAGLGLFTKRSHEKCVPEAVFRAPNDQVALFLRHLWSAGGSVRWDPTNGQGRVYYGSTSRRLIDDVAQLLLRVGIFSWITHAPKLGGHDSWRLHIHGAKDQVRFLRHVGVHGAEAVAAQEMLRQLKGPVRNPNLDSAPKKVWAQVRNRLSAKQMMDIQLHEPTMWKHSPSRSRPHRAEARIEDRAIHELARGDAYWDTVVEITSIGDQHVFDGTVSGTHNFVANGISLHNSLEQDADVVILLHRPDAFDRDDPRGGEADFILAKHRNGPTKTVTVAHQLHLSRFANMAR
# [7] = target: T3, Protein RecA (Mycobacterium tuberculosis, UniProt P9WHJ3); assay: Fluorescence Cell-Free Homogeneous Dose Retest to Identify Inhibitors of RecA-Intein Splicing Activity. [Related pubchem assays (depositor defined):AID2097, AID2223, AID489010, AID492950]; type: functional
# T3 sequence (P9WHJ3 whole entry): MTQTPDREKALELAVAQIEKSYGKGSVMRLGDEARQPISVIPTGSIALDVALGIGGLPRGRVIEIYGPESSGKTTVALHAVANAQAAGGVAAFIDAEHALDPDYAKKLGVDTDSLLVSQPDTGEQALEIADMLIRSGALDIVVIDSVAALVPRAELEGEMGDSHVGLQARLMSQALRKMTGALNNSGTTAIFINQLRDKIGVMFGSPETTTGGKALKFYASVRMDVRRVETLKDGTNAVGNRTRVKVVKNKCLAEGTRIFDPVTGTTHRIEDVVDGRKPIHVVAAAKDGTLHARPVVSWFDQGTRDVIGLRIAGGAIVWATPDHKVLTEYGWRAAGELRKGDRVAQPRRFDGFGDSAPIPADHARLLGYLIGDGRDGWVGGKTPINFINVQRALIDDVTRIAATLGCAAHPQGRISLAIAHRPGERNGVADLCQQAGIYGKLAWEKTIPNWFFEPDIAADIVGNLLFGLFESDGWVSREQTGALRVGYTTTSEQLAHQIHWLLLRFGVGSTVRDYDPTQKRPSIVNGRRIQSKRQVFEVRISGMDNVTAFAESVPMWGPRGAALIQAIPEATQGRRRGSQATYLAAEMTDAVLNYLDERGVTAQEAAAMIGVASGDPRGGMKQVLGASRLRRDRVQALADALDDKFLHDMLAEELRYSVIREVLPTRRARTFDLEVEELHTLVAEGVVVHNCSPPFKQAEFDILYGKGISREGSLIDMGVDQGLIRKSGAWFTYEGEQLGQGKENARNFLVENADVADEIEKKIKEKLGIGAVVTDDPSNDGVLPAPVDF
# [8] = target: T4, Heat shock factor protein 1 (Mus musculus, UniProt P38532); assay: decrease of HSF1-responsive luciferase luminescence – cell-based, NIH3T3, dose retest, confirmation (AID 2382); type: functional;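 also: NIH3T3 fibroblasts with HSF1-driven luciferase reporter stressed by proteasome inhibitor MG132; luminescence from HSF1-driven luciferase expression after 8 hours of MG132 stress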
# T4 sequence (P38532 whole entry): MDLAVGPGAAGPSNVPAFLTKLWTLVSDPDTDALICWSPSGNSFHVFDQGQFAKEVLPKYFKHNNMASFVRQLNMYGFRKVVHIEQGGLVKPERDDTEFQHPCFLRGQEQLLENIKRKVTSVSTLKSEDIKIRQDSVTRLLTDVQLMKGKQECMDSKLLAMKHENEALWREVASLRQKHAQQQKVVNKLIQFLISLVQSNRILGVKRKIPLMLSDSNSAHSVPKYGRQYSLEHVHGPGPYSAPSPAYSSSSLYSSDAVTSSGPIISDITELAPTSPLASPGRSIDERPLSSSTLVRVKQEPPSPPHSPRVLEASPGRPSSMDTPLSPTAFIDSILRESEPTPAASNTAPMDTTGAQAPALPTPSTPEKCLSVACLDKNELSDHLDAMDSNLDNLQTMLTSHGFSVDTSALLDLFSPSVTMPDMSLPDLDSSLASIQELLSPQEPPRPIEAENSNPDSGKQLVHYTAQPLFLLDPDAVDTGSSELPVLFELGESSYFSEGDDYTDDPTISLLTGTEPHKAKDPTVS
# [9] = fluconazole-exposed Candida albicans growth modulators – fluorescence, retest, confirmation (AID 2467); type: functional, cell-based
# Chain of Cytochrome P450 3A4 (P08684 whole entry): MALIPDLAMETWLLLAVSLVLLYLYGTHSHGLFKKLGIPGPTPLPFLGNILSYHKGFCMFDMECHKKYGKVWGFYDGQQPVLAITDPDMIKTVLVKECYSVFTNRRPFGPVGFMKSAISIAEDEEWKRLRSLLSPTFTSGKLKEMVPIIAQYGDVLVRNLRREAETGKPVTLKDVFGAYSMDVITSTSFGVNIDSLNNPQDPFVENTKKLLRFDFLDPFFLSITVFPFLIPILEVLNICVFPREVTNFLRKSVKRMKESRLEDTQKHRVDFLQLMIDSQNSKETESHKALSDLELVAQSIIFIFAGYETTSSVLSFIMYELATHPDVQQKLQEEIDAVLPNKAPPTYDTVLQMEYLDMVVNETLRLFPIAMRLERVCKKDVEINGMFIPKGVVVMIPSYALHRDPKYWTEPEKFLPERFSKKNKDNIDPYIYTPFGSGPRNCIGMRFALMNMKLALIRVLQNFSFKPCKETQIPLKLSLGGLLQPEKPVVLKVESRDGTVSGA
# Chain of Cytochrome P450 2C19 (P33261 whole entry): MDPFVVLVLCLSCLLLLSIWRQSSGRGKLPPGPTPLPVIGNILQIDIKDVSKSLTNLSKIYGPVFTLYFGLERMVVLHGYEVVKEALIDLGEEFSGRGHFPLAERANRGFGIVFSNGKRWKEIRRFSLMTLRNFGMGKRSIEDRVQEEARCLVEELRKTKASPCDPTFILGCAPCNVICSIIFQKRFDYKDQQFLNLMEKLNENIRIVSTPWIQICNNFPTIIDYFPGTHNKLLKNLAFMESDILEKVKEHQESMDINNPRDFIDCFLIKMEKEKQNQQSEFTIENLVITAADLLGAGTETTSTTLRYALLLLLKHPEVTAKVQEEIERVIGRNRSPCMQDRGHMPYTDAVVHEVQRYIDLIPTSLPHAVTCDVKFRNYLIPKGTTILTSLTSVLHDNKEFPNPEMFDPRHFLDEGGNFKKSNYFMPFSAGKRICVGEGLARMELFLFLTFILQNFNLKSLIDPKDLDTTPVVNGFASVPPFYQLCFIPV
# Chain of Cytochrome P450 2C9 (P11712 whole entry): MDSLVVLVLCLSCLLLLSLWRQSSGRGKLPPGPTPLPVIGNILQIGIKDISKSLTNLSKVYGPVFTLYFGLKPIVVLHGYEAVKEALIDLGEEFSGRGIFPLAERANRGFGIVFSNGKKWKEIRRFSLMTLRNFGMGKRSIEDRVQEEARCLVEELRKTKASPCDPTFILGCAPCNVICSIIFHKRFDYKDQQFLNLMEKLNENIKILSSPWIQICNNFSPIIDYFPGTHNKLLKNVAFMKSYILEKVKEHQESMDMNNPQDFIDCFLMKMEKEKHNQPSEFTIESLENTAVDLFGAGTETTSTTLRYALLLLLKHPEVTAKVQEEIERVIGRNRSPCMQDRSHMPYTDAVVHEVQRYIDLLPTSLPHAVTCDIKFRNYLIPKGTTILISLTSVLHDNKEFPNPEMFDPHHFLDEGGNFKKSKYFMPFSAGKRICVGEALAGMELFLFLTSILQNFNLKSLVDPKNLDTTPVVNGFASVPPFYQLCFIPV
# Chain of Cytochrome P450 2D6 (P10635 whole entry): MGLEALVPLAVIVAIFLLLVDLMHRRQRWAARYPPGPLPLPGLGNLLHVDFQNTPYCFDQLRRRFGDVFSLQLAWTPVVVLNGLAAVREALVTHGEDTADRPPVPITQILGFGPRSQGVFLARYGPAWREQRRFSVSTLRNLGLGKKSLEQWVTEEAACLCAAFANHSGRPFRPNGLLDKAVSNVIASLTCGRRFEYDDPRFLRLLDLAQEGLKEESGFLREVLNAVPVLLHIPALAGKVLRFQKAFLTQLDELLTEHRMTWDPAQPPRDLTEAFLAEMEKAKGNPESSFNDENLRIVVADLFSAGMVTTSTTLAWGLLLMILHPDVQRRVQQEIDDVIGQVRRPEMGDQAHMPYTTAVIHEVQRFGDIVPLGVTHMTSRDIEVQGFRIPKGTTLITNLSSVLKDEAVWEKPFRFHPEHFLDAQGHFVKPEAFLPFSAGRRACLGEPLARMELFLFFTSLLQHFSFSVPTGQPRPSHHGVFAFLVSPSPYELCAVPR
SMILES,AC50 [1],AC50 [2],AC50 ([3]; read-out: AC50),other results
CN(Cc1ccco1)C(=O)C1CCC(=O)N1Cc1ccc(F)cc1 (stereo not drawn),25.1 µM (inconclusive),–,–,–
CS(=O)(=O)N1CCC2(CCCN(c3ccccn3)C2)CC1,25.1 µM (inconclusive),25.1 µM (inconclusive),15.8 µM (inconclusive),AC50 [4]: 15.8 µM (inconclusive)
N#CCCSC(=S)[C@H]1CCCC1=N,–,–,5.01 µM (inconclusive),AC50 [4]: 2.51 µM (inconclusive)
FC(F)(F)c1ccccc1-c1nc(NC2CC2)c2ccccc2n1,31.6 µM (inconclusive),–,10 µM (inconclusive),–
CN1CCN(c2ncc3nc(-c4cn(C)c5ccccc45)c(=O)n(CCC#N)c3n2)CC1,39.8 µM (inconclusive),–,39.8 µM (inconclusive),AC50 [5]: 39.8 µM (inconclusive); AC50 [4]: 25.1 µM (inconclusive)
COc1ccc(-c2cc(C(F)(F)F)n3nc(C(=O)NCc4ccco4)c(Cl)c3n2)cc1,–,–,1.78 µM (inconclusive),AC50 [4]: 3.16 µM (inconclusive)
CCOc1cc(/C=C(\C#N)C(=O)Nc2cccc(C(=O)O)c2)cc(Br)c1OC(=O)c1ccc(OC)cc1,–,–,–,AC50 [6]: 4.04 µM (active); EC50 [7]: 13.2 µM (active)
C/C=C(\C)C(=O)O[C@@H]1C(C)=C2[C@H]([C@@H]1OC(=O)CCCCCCC)[C@@](C)(OC(C)=O)C[C@@H](OC(=O)CCC)[C@@]1(O)[C@H]2OC(=O)[C@]1(C)O,39.8 µM (inconclusive),39.8 µM (inconclusive),–,–
CCOc1cc(/C=C2\C(=N)N3N=C(S(=O)(=O)CC)SC3=NC2=O)ccc1OC(=O)c1ccco1,–,–,–,AC50 [6]: > 380 µM (inactive); EC50 [7]: 22.1 µM (active)
O=C1c2ccccc2CC[C@H]1CNCCc1ccc(O)cc1,–,–,31.6 µM (inconclusive),AC50 [5]: 39.8 µM (inconclusive); AC50 [4]: 7.94 µM (inconclusive)
CCOc1ccc(C(=O)C2=C(O)C(=O)N(CCCn3ccnc3)C2c2cccs2)cc1Cl (stereo not drawn),14.1 µM (inconclusive),–,–,EC50 [8]: > 195 µM (not active)
c1nc(NC2CCNCC2)c2cc(-c3ccc4c(c3)OCO4)ccc2n1,20 µM (inconclusive),–,–,–
Cc1ccc(S(=O)(=O)O[C@H]2CN3CCC2CC3)cc1,3.98 µM (inconclusive),–,–,–
O=C(c1ccccc1)[C@H]1[C@H](c2ccccc2[N+](=O)[O-])N1C1CCCCC1 (stereo partly drawn),–,0.631 µM (inconclusive),–,AC50 [4]: 3.98 µM (inconclusive)
CCOC(=O)C1CCCN(C(=O)CCn2nc(-c3ccccc3)ccc2=O)C1 (stereo not drawn),–,–,–,AC50 [5]: 31.6 µM (inconclusive); AC50 [4]: 17.8 µM (inconclusive)
CNC(=O)/C=C1\NC(C)(C)Cc2c1ccc1ccccc21,–,–,–,AC50 [5]: 5.01 µM (inconclusive); AC50 [4]: 15.8 µM (inconclusive)
C[S+]([O-])c1ccccc1-c1nc(-c2cc(C(F)(F)F)cc(C(F)(F)F)c2)no1 (stereo not drawn),–,2.24 µM (inconclusive),8.91 µM (inconclusive),AC50 [5]: 17.8 µM (inconclusive)
CN(C)Cc1ccccc1-c1cncnc1NCc1cccnc1,–,12.6 µM (inconclusive),–,–

SMILES,AC50 [1],AC50 [2],AC50 ([3]; read-out: AC50),other results
O=[N+]([O-])c1ccc2c(/N=N\c3ccc4ccccc4c3O)c(O)cc(S(=O)(=O)O)c2c1,0.631 µM (inconclusive),–,2.51 µM (inconclusive),AC50 [4]: 3.98 µM (inconclusive)
Cc1[nH]c2ccccc2c1C(c1ccccn1)N1CCC(C)CC1 (stereo not drawn),25.1 µM (inconclusive),–,–,–
Nc1ccc(SCCN2C(=O)c3ccccc3C2=O)cc1,–,–,–,EC50 [9]: > 38 µM (not active)
Cc1cc(C)c(S(C)(=O)=O)c(Oc2cccc(C(F)(F)F)c2)n1,–,–,–,AC50 [6]: 213 µM (active); EC50 [7]: > 380 µM (inactive)
COc1cccc(C(=O)O/N=C(\N)c2ccc([N+](=O)[O-])cc2)c1OC,–,–,–,AC50 [6]: > 380 µM (inactive); EC50 [7]: > 380 µM (inactive)
Cc1c(-c2c(C#N)c(N)nc3c2CCCCCC3)cnn1C,–,35.5 µM (inconclusive),–,AC50 [5]: 22.4 µM (inconclusive)
Cn1ncc([N+](=O)[O-])c1C(=O)Nc1ccc2c(c1)OCCO2,12.6 µM (inconclusive),–,0.0355 µM (inconclusive),AC50 [5]: 11.2 µM (inconclusive)
CC(=O)c1cccc(NC(=O)Oc2ccccc2)c1,–,28.2 µM (inconclusive),–,AC50 [3]: inconclusive
CC1=C[N+](=O)c2ccccc2[N+]1=O,–,6.31 µM (inconclusive),–,–
CN1CCCC[C@@H]1CCN1CCCCC1,–,0.01 µM (inconclusive),–,–
CCCCN(c1ccccc1)c1ncnc2c1cnn2C,–,0.631 µM (inconclusive),–,–
Cc1nc2ccccc2cc1C[N+]12CN3CN(CN(C3)C1)C2,–,0.631 µM (inconclusive),–,–
Cn1cc(C(=O)N/N=C/C(Br)=C\c2ccccc2)ccc1=O,–,3.55 µM (inconclusive),28.2 µM (inconclusive),–
C/C(CC(=O)Nc1cc(C)ccn1)=N\NC(=O)C(=O)NC(C)C,–,–,–,AC50 [6]: 19.6 µM (active); EC50 [7]: 4.48 µM (active)
C/C(=C\C(=O)c1ccc(Cl)cc1)NCc1ccc2c(c1)OCO2,5.01 µM (inconclusive),–,–,AC50 [4]: 0.794 µM (inconclusive)
COc1ccccc1CNc1ncnc2ccc(-c3ccc(C(=O)N(C)C)cc3)cc12,39.8 µM (inconclusive),–,20 µM (inconclusive),–
CCCCCCCCC(=O)NCc1ccc(O)c(OC)c1 [NONIVAMIDE],25.1 µM (inconclusive),–,7.94 µM (inconclusive),–
